Measured values published in the NIST ThermoML archive (doi:10.1021/je060271a).
Numbers after ± are expanded uncertainties.

Settings: 323.14 K, Liquid, Vibrating tube method

CCCCCCC(=O)OCC(COC(=O)CCCCCC)(COC(=O)CCCCCC)COC(=O)CCCCCC [pentaerythritol tetraheptanoate]
Settings | mass density [kg/m3]
141.6 kPa | 955.8 ± 1.2
142.1 kPa | 955.7 ± 1.2
142.7 kPa | 955.7 ± 1.2
143.5 kPa | 955.7 ± 1.2
146.5 kPa | 955.7 ± 1.2
148.2 kPa | 955.7 ± 1.2
149.1 kPa | 955.7 ± 1.2
149.8 kPa | 955.7 ± 1.2
150.7 kPa | 955.7 ± 1.2
151.7 kPa | 955.7 ± 1.2
160.6 kPa | 955.8 ± 1.2
191.9 kPa | 955.7 ± 1.2
198.5 kPa | 955.7 ± 1.2
199.7 kPa | 955.7 ± 1.2
201.6 kPa | 955.8 ± 1.2
203.3 kPa | 955.6 ± 1.2
206.3 kPa | 955.6 ± 1.2
208.7 kPa | 955.6 ± 1.2
211.5 kPa | 955.7 ± 1.2
213.8 kPa | 955.8 ± 1.2
216.2 kPa | 955.6 ± 1.2
219 kPa | 955.8 ± 1.2
222.1 kPa | 955.7 ± 1.2
224.9 kPa | 955.7 ± 1.2
228.5 kPa | 955.7 ± 1.2
231.8 kPa | 955.6 ± 1.2
234.6 kPa | 955.7 ± 1.2
237.8 kPa | 955.7 ± 1.2
248.7 kPa | 955.8 ± 1.2
252.3 kPa | 955.7 ± 1.2
256.9 kPa | 955.6 ± 1.2
260.9 kPa | 955.8 ± 1.2
269.9 kPa | 955.8 ± 1.2
274.2 kPa | 955.7 ± 1.2
279.5 kPa | 955.8 ± 1.2
284.3 kPa | 955.8 ± 1.2
289.2 kPa | 955.7 ± 1.2
294.6 kPa | 955.8 ± 1.2
300.8 kPa | 955.7 ± 1.2
306.2 kPa | 955.9 ± 1.2
313.2 kPa | 955.9 ± 1.2
325.7 kPa | 955.8 ± 1.2
332.1 kPa | 955.9 ± 1.2
355.4 kPa | 955.9 ± 1.2
382.3 kPa | 955.9 ± 1.2
391.6 kPa | 956 ± 1.2
402.9 kPa | 955.9 ± 1.2
412.9 kPa | 955.8 ± 1.2
423.9 kPa | 955.8 ± 1.2
437.3 kPa | 955.8 ± 1.2
478.1 kPa | 956 ± 1.2
585.3 kPa | 955.9 ± 1.2
606 kPa | 955.9 ± 1.2
632.9 kPa | 956 ± 1.2
657.4 kPa | 955.9 ± 1.2
683.2 kPa | 956 ± 1.2
747.4 kPa | 956.1 ± 1.2
859.8 kPa | 956 ± 1.2
901.9 kPa | 956.1 ± 1.2
946 kPa | 956.2 ± 1.2
1003.2 kPa | 956.3 ± 1.2
1051.3 kPa | 956.3 ± 1.2
1084.8 kPa | 956.4 ± 1.2
1163.8 kPa | 956.3 ± 1.2
1174 kPa | 956.4 ± 1.2
1215.6 kPa | 956.4 ± 1.2
1248.5 kPa | 956.5 ± 1.2
1269 kPa | 956.4 ± 1.2
1336.1 kPa | 956.5 ± 1.2
1342 kPa | 956.5 ± 1.2
1347.9 kPa | 956.5 ± 1.2
1355 kPa | 956.5 ± 1.2
1360.7 kPa | 956.6 ± 1.2
1366.8 kPa | 956.5 ± 1.2
1374.4 kPa | 956.5 ± 1.2
1380.5 kPa | 956.5 ± 1.2
1386.8 kPa | 956.6 ± 1.2
1393.9 kPa | 956.6 ± 1.2
1400.3 kPa | 956.5 ± 1.2
1406.6 kPa | 956.7 ± 1.2
1414.7 kPa | 956.6 ± 1.2
1515.9 kPa | 956.7 ± 1.2
1530.9 kPa | 956.7 ± 1.2
1537.8 kPa | 956.7 ± 1.2
1547 kPa | 956.7 ± 1.2
1554.5 kPa | 956.7 ± 1.2
1561.9 kPa | 956.7 ± 1.2
1571 kPa | 956.8 ± 1.2
1578.6 kPa | 956.7 ± 1.2
1586.4 kPa | 956.6 ± 1.2
1596.1 kPa | 956.6 ± 1.2
1604 kPa | 956.7 ± 1.2
1612.1 kPa | 956.7 ± 1.2
1637.6 kPa | 956.7 ± 1.2
1645.8 kPa | 956.8 ± 1.2
1655.5 kPa | 956.8 ± 1.2
1664.2 kPa | 956.7 ± 1.2
1672.2 kPa | 956.7 ± 1.2
1680.7 kPa | 956.8 ± 1.2
1690.9 kPa | 956.8 ± 1.2
1699.8 kPa | 956.8 ± 1.2
1708.3 kPa | 956.8 ± 1.2
1756.9 kPa | 956.8 ± 1.2
1766.2 kPa | 956.7 ± 1.2
1784.8 kPa | 956.7 ± 1.2
1795.8 kPa | 956.8 ± 1.2
1805 kPa | 956.9 ± 1.2
1816.8 kPa | 956.8 ± 1.2
1826.5 kPa | 956.8 ± 1.2
1836.5 kPa | 956.8 ± 1.2
1847 kPa | 956.8 ± 1.2
1857.2 kPa | 957 ± 1.2
